{"source": "patent US20150133373A1", "about": "“TRANSMUCOSAL DELIVERY OF ENGINEERED POLYPEPTIDES” (priority 2012, published 2015)", "key": {"NIH/Swiss mice": {"test_system": "NIH/Swiss mice", "assay": "OGTT DOA (oral glucose tolerance test for duration of action) in NIH/Swiss mice", "assay_type": "in vivo, mouse", "settings": "Table 6; 25 nmol/kg IP at t=−1 day; blood glucose at 30 min after glucose gavage ([…]); 4 hr fasted NIH/Swiss female mice"}, "Sprague Dawley rats": {"test_system": "Sprague Dawley rats", "assay": "IVGTT DOA in HSD fed anesthetized rats 5 days post dose", "assay_type": "in vivo, rat", "settings": "240 nmol/kg", "protocol": "In vivo assays for activity and duration of action and pharmacokinetics can be done using known methods. For example, duration can be performed using an oral glucose tolerance test (OGTT) in which the drug is administered to the subject at a desired time point before the glucose is administered orally (to measure drug duration of action; OGTT DOA) and glucose blood levels are measured (e.g. readily done in mice). Activity and duration can also be measured using an intravenous glucose tolerance test (IVGTT) in which the drug is administered to the subject at a desired time point before the glucose is administered IV (IVGTT DOA) and blood glucose levels are measured (e.g. can readily be done in rats). Preferred engineered compounds have a desired effect on blood glucose of at least 24 hours duration after a single dose of drug, preferably at least 3 days, at least 4 days, at least 5 days, at least 6 days, and at least 1 week after the single dose of drug is given.\nThe time course of plasma glucose after IVGTT is depicted in FIG. 4A. Integrated (AUC0-60) glucose levels are depicted in the histogram of FIG. 4B. The time course of the change in insulin levels in the test subjects was depicted in FIG. 4C. The integrated insulin levels (AUC0-30) are depicted in FIG. 4D. The time course of body weight change (% change from baseline) is depicted for the test subjects in FIG. 4E. […]"}, "ob/ob mice": {"test_system": "ob/ob mice", "assay": "Body weight, glucose and HbA1c in ob/ob mice after a single sc dose", "assay_type": "in vivo, mouse", "settings": "single sc injection, non-fasted male ob/ob mice; Cmpd 15 at 250 nmol/kg", "from_the_text": "Changes in glucose (% pre-treatment) and in HbA1c (% pre-treatment) are depicted in FIGS. 5B-5C. Points represent mean±s.d. (standard deviation). […] Unless indicated otherwise, blood glucose measures described herein employed a OneTouch® Ultra® device (LifeScan, Inc. Miliptas, Calif.)."}, "[1]": {"assay": "Stability in human plasma", "assay_type": "in vitro ADME", "settings": "10 μg/ml in human plasma, 37 degrees C, 5 hours; normalized to a standard (100%)"}, "C57BL6 female mice": {"test_system": "C57BL6 female mice", "assay": "Kidney vacuolization (cytoplasmic vacuolation of renal cortical tubular epithelial cells)", "assay_type": "in vivo, mouse", "settings": "Example 14; sc injection on days 0-6, kidneys on day 7", "protocol": "(§1) With some drugs, such as some pegylated proteins, undesirable vacuoles can form in cytoplasm of epithelial cells lining the proximal convoluted tubules, which is an undesirable toxicity measure. […] C57BL6 female mice (n=2 cages, 3 mice/cage) were weighed daily 3 hours prior to lights out Immediately after weighing, on days 0-6 mice were injected subcutaneously with test compound. Mice were sacrificed on day 7 and kidneys submitted for histopathology. […] A positive control compound known to cause vacuole formation was scored as 3. The ABD polypeptide itself scored 0.\nas §1, with “3.” for “3. The ABD polypeptide itself scored 0.”"}, "diabetic ob/ob mice": {"test_system": "diabetic ob/ob mice", "assay": "Chronic (28 days) treatment of diabetic ob/ob mice: glucose, HbA1c, body weight", "assay_type": "in vivo, mouse", "protocol": "The time course of the effect of the test compound on body weight, glucose lowering and HbA1c lowering in ob/ob mice was investigated post dose, with values at 4 weeks presented in FIGS. 11A, 11B, 11C and 11D. […] Points represent mean±s.d. (standard deviation). Each test compound was injected IP on day=0 immediately following baseline sample collection in non-fasted male ob/ob mice. […] Unless indicated otherwise, blood glucose measures described herein employed a OneTouch® Ultra® device (LifeScan, Inc. Miliptas, Calif.)."}, "[2]": {"assay": "PK profile, food intake and body weight after a single subcutaneous dose in normal HSD rats", "assay_type": "in vivo, rat", "settings": "25 nmol/kg subcutaneous", "protocol": "Blood was collected via tail bleed at t=1 hour, 3 hours, 6 hours, 24 hours, 48 hours, 72 hours, 96 hours and 168 hours from fed HSD male rats. Food and body weights were measured daily. […] Points represent mean±sd.\nPharmacokinetic profile and biological activity of an exemplary engineered polypeptide subcutaneously dosed in normal Harlan Sprague-Dawley (HSD) rats is presented. […] Blood was collected via tail bleed at t=1 hour, 3 hours, 6 hours, 24 hours, 48 hours, 72 hours, 96 hours and 168 hours from fed HSD male rats. Food and body weights were measured daily. […] Points represent mean±sd. In the figures, vehicle is solid square, Cmpd 2-11 is open inverted triangle and Cmpd 2-9 is closed triangle. The plasma maximal concentration in FIG. 18C is equivalent to about 25,000 picomolar."}, "db/db mice": {"test_system": "db/db mice", "assay": "Oral (gavage) delivery, blood glucose lowering in diabetic db/db mice", "assay_type": "in vivo, mouse", "settings": "240 nmol/kg peroral by gavage in PBS/propylene glycol (50:50); 2-hour fasted db/db mice; to 120 minutes"}, "[3]": {"settings": "25 and 250 nmol/kg IP twice each week for 28 days"}}}
{"sequence": "HGEGTFTSDLSKQLEEEAVRLFIEWLKQGGPSKEIISTGGGGSASLAEAKVLANRELDKYGVSDFYKRLINKAKTVEGVEALKLHILAALP [Cmpd 15]", "values": [{"measurement": "% Glucose Lowering Compared to Vehicle", "setting": "NIH/Swiss mice", "result": "−21", "unit": "%"}, {"measurement": "time after administration at which drug activity is present (IVGTT DOA)", "setting": "Sprague Dawley rats", "result": "at least 5 days"}, {"measurement": "body weight in ob/ob mice (in words)", "setting": "ob/ob mice", "result": "significant body weight loss"}, {"measurement": "Percent Stable in Human Plasma", "setting": "[1]", "result": 96.0, "unit": "%"}, {"measurement": "Severity score for cytoplasmic vacuolation of renal cortical tubular epithelial cells", "setting": "C57BL6 female mice", "result": 0}, {"measurement": "glycemic and body weight loss effects compared to the maximally efficacious dose of exendin-4 (in words)", "setting": "diabetic ob/ob mice; 25 nmol/kg biw IP vs exendin-4 ~[…] CSI, 28 days", "result": "exceeded"}, {"measurement": "effect compared to the maximally efficacious dose of exendin-4 (in words)", "setting": "diabetic ob/ob mice; 250 nmol/kg biw IP, 28 days", "result": "significantly greater than the maximally efficacious dose of exendin-4"}, {"measurement": "HbA1c lowering (in words)", "setting": "diabetic ob/ob mice; [3]", "result": "significant HbA1c lowering"}, {"measurement": "body weight loss (in words)", "setting": "diabetic ob/ob mice; [3]", "result": "significant body weight loss"}, {"measurement": "HbA1c lowering and body weight loss compared to liraglutide (in words)", "setting": "diabetic ob/ob mice; equimolar dosing to liraglutide, data not shown", "result": "more effective than liraglutide"}, {"measurement": "glucose lowering upon chronic exposure compared to liraglutide (in words)", "setting": "diabetic ob/ob mice; equimolar dosing, twice weekly (BIW), ob/ob mice", "result": "superior to liraglutide"}, {"measurement": "apparent half-life", "setting": "[2]", "result": 54, "unit": "h"}, {"measurement": "activity after oral dosing (blood glucose, in words)", "setting": "db/db mice", "result": "active when dosed orally"}]}
